Series [1] has as its system SIRPα signalling induced by Raji cells. The series can be described thus: Assay B: SIRPα signalling assay using Raji cells. The class given is cell-based, human. The conditions noted are these: prior art compounds, Table 5, read-out: Inhibition of SIRPα signalling induced by Raji cells: IC50. In a few lines: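 SIRPα signalling induced by Raji cells in a PathHunter reporter line, read as β-galactosidase complementation luminescence. Detection reagent 1 added for 15 min, then reagent 2 for 60 min in the dark, both at room temperature.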

The subject of series [2] is SIRPα signalling induced by A549 cells. The series can be described thus: Assay B: SIRPα signalling assay using A549 cells. Format: cell-based, human. The conditions noted are these: prior art compounds, Table 5, read-out: Inhibition of SIRPα signalling induced by A549 cells: IC50. In short, it runs like this: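 5000 Raji or A549 cells were cultured 48 h at 37 °C with serially diluted compound (DMSO), then 15000 Jurkat PathHunter SIRPα reporter cells were added for 5 h. Beta-galactosidase luminescence was developed at RT, and IC50 obtained by 4-parameter sigmoidal fit.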

Series [3] concerns the target human glutaminyl cyclase (hQC) (Homo sapiens (Human), UniProt Q16769). The conditions noted are these: J-S, NCB 2015 supplementary information; read-out: IC50 on isolated hQC; cited from earlier work.
The subject of another series is Caco-2 cells. Description: Assay C: permeability in CACO-2 cells. The class given is in vitro ADME. The conditions noted are these: Caco-2, apical to basolateral; prior art compounds, Table 8. In a few lines:
(§1)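 Compound in transport solution applied to apical or basolateral donor side for A-B or B-A permeability, 3 filter replicates. Donor sampled at start and end, receiver at intervals up to 2 hours with volume replaced; concentrations by HPLC-MS/MS or scintillation counting.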

In the next series the target is QPCT (Homo sapiens (Human), UniProt Q16769). Description: Assay A: biochemical QPCT activity assay (MALDI-TOF MS). The conditions noted are these: prior art compounds, Table 3; read-out: Inhibition of QPCT: IC50. In a few lines: (§2)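 Compounds preincubated 10 min at 24 °C with enzyme in 20 mM Tris pH 7.5, 0.1 mM TCEP, 0.01% BSA, 0.001% Tween20; CD47 peptide substrate (final 10 μM for QPCTL, 20 μM for QPCT) reacted 40 min at 24 °C. Pyroglutamate product read by MALDI-TOF MS versus internal standard, normalized to controls; four-parameter fit.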

Series [4] can be described thus: Assay C: permeability in CACO-2 cells. Format: in vitro ADME. The conditions noted are these: human, pH 7.2, prior art compounds, Table 8. In a few lines:
as §1
On the technique in general: Caco-2 monolayers are a common model of the intestinal barrier.

Series [5] deals with glutamine acyl cyclase isoenzyme (Homo sapiens (Human), UniProt Q9NXS2). The conditions noted are these: given in CN 114874186; cited from earlier work.
The next series concerns the target QPCTL (Homo sapiens (Human), UniProt Q9NXS2). The series can be described thus: Assay A: biochemical QPCTL activity assay (MALDI-TOF MS). The conditions noted are these: prior art compounds, Table 3; read-out: Inhibition of QPCTL: IC50. In short, it runs like this:
as §2

These results are taken from patent US20240246981A1, “[…] DERIVATIVES AS INHIBITORS OF […]-PEPTIDE CYCLOTRANSFERASE AND […]-PEPTIDE CYCLOTRANSFERASE LIKE PROTEIN” (Boehringer Ingelheim International GmbH, priority 2022, published 2024).

Structures are written as SMILES. Like-named read-outs stand apart in the source and are kept apart here.

Sequence of QPCT (Q16769 29-361): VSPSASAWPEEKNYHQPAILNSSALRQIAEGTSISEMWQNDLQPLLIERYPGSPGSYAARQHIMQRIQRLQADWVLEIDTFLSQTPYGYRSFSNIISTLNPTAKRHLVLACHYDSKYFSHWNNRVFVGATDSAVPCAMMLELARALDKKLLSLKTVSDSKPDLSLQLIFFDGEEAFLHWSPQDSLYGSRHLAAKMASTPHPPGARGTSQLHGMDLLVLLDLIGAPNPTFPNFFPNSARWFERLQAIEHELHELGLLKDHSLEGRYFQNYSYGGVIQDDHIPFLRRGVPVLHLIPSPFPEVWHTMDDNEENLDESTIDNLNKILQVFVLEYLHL
Sequence of QPCTL (Q9NXS2 whole entry): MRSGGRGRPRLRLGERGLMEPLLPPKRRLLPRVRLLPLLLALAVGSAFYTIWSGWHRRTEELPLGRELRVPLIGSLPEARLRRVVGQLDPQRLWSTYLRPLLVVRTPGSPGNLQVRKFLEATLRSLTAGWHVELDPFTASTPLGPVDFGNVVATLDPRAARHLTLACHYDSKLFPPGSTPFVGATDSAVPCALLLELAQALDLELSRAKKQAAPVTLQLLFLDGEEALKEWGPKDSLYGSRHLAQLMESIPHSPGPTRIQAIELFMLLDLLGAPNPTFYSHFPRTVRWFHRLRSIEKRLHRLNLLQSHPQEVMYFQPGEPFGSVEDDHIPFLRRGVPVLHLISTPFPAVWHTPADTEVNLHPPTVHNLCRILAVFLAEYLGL
Sequence of glutamine acyl cyclase isoenzyme (Q9NXS2 whole entry): as above
Sequence of human glutaminyl cyclase (hQC) (Q16769 29-361): as the sequence (Q16769 29-361) above

By IC50 is commonly meant the concentration that inhibits the measured activity by half. With `Cn1cnnc1C1CCN(c2ncccc2-c2cccnc2)CC1` [SEN180, reference compound], the IC50 in series [1] was 2970 nM; in series [2], 868 nM; in series [3], 170 nM; on QPCT, 176 nM. Also, the “Permeability A-B” value with Caco-2 cells is given as 4.2 10^−6 cm/s.

Broadly, the Papp A→B is the apparent permeability from the apical to the basolateral side of a cell layer. Lower therefore signals poor permeation. A word on the efflux ratio: it is a quotient of directional permeabilities that is used to spot active efflux. `Cn1cnnc1C1CCN(S(=O)(=O)c2cccc(Nc3ccc(OCc4ccccc4)nc3)c2)CC1` [compound 23, reference compound]: the IC50 in series [1] (Homo sapiens) was above 10000 nM; in series [2] (Homo sapiens) it was above 10000 nM; in series [5], 11.3 nM; at QPCT it was 1840 nM; at QPCTL it was 4770 nM. The apparent permeability from apical to basolateral (Papp A→B) at 2 h in series [4] (Caco-2, apical to basolateral) was 3.5 ×10⁻⁶ cm/s. Also, the efflux ratio at 2 h in series [4] (Caco-2) amounted to 17.6.
